Reference: patent US6838019B2, “Phosphorescent material and electroluminescent device using thereof” (Ritek Corporation, priority 2001, dated 2005)

Test: Solubility test in organic solvents
Type: physicochemical
Design: key: X: not dissolved; ◯: partially dissolved; ⊚: completely dissolved
Conditions: 1 mg, room temperature (20 degrees Celsius); for Solubility in methylcyclohexane: methyl cyclohexane
Method: 1 mg of Tb(TMHD)3—DMSO, Tb(TMHD)3—MPSO, Tb(TMHD)3—DPSO, Tb(TMHD)3, Tb(TMHD)3—OPNP are each dissolved under room temperature (20 degrees Celsius) in the following organic solvent: dichlormethane, acetonitrile, toluene, ethyl acetate, hexane, methyl cyclohexane methanol, methy ethyl ketone ether.

Solubility in acetonitrile | Solubility in dichloromethane | Solubility in ether | Solubility in ethyl acetate | Solubility in hexane | Solubility in methanol | Solubility in methylcyclohexane | Solubility in methyl ethyl ketone | Solubility in toluene | Compound
X | ◯ | ◯ | X | X | X | X | X | ◯ | CC(C)(C)C(=O)[CH-]C(=O)C(C)(C)C.CC(C)(C)C(=O)[CH-]C(=O)C(C)(C)C.CC(C)(C)C(=O)[CH-]C(=O)C(C)(C)C.[Tb+3] [Tb(TMHD)3, tris(2,2,6,6-tetramethyl-3,5-heptanedionato) Terbium(III), reference compound]
◯ | ⊚ | ⊚ | ⊚ | ⊚ | ⊚ | ⊚ | ⊚ | ⊚ | CC(C)(C)C(=O)C=C([O-])C(C)(C)C.CC(C)(C)C(=O)C=C([O-])C(C)(C)C.CC(C)(C)C(=O)C=C([O-])C(C)(C)C.CS(C)=O.[Tb+3] [Tb(TMHD)3-DMSO, tri(2,2,6,6-tetramethyl-3,5-heptanedionate) Tb(III) dimethyl sulfoxide]
◯ | ⊚ | ⊚ | ⊚ | ◯ | ◯ | ◯ | ⊚ | ⊚ | Tris(2,2,6,6-tetramethyl-3,5-heptanedionato) Terbium (III) diphenyl phosphonimide tris-phenyl phosphorane [Tb(TMHD)3-OPNP, reference compound]
◯ | ⊚ | ⊚ | ⊚ | ⊚ | ⊚ | ⊚ | ⊚ | ⊚ | CC(C)(C)C(=O)C=C([O-])C(C)(C)C.CC(C)(C)C(=O)C=C([O-])C(C)(C)C.CC(C)(C)C(=O)C=C([O-])C(C)(C)C.CS(=O)c1ccccc1.[Tb+3] [Tb(TMHD)3-MPSO, tri(2,2,6,6-tetramethyl-3,5-heptanedionate) Tb(III) methyl phenyl sulfoxide]
◯ | ⊚ | ⊚ | ⊚ | ⊚ | ⊚ | ⊚ | ⊚ | ⊚ | CC(C)(C)C(=O)C=C([O-])C(C)(C)C.CC(C)(C)C(=O)C=C([O-])C(C)(C)C.CC(C)(C)C(=O)C=C([O-])C(C)(C)C.O=S(c1ccccc1)c1ccccc1.[Tb+3] [Tb(TMHD)3-DPSO, tri(2,2,6,6-tetramethyl-3,5-heptanedionate) Tb(III) diphenyl sulfoxide]
